This is an account of results in US8134015B2, “Compound inhibiting in vivo phosphorous transport and medicine containing the same” (Kyowa Hakko Kirin Co., Ltd., priority 2003, dated 2012).

The first assay concerns the target T1, rat NaPi-2b (Rattus norvegicus, UniProt Q9JJ09).
T1 construct: expressed in transfected cells; host or cells: Xenopus oocytes injected with cRNA
T1 sequence (Q9JJ09 1-695): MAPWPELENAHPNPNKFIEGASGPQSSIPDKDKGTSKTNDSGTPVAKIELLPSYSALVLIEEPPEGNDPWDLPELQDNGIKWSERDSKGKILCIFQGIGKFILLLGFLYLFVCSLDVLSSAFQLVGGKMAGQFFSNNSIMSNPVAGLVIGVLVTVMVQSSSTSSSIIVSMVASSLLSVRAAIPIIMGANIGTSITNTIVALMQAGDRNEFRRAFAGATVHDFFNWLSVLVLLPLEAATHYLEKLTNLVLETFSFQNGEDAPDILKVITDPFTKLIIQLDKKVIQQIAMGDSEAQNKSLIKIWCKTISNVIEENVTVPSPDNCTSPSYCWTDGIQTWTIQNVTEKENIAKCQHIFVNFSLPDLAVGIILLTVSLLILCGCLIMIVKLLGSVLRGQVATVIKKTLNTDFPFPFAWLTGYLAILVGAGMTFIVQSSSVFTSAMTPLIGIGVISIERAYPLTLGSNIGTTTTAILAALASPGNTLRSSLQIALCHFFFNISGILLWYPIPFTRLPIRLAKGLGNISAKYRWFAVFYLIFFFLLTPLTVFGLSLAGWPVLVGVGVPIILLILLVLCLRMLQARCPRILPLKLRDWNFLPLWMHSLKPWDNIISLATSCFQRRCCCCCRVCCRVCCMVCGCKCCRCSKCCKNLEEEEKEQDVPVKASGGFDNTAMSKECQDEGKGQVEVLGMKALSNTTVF
Kind of assay: Sodium-dependent phosphate uptake of Xenopus oocytes which expressed NaPi-2b (32P). Type of assay: cell-based. The conditions noted are these: Xenopus oocytes expressing rat NaPi-2b, 32P radioactive phosphorus; read-out: IC50 (phosphate uptake inhibitory activity). Summed up: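 Steps: rat NaPi-2b cDNA cloned from small intestine; cRNA made and injected into oocytes; 2-day expression; 32P phosphate uptake with compound; % inhibition at 300/100 μM taken from one curve.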
The term IC50 denotes the concentration that inhibits the measured activity by half. On to `O=C(Nc1ccccc1C(=O)N/N=C/c1ccc(Cl)c(C(F)(F)F)c1)c1ccccn1` [Compound 508, Pyridin-2-carboxylic acid [2-(4-chloro-3-trifluoromethyl-benzylidene-hydrazinocarbonyl)-phenyl]-amide], for which the IC50 was 0.48 µM.
Same read-out and setting: the same measure for `CCN(CC)CCN(Cc1cccc(C(=O)Nc2sc3c(c2C(=O)N/N=C/c2ccc(C)c(C)c2)CCCC3)c1)C(C)=O` [Compound 652, 3-{[Acetyl-(2-diethylamino-ethyl)-amino]-methyl}-N-[3-(3,4-dimethyl-benzylidene-hydrazinocarbonyl)-4,5,6,7-tetrahydro-benzo[b]thiophen-2-yl]-benzamide]: 0.72 µM; for `COc1ccc(/C=N/NC(=O)c2c(C)csc2NC(=O)c2cccc(CN3CCN(CCO)CC3)c2)cc1` [Compound 580, 3-[4-(2-Hydroxy-ethyl)-piperazin-1-ylmethyl]-N-[3-(4-methoxy-benzylidene-hydrazinocarbonyl)-4-methyl-thiophen-2-yl]-benzamide]: < 3 µM.
With `COc1ccc(C(=O)Nc2ccccc2C(=O)N/N=C/c2ccc(C)cc2)cc1` [Compound 51, 4-Methoxy-N-[2-(4-methyl-benzylidene-hydrazinocarbonyl)-phenyl]-benzamide], the half-maximal inhibitory concentration (IC50) was 4.6 µM.
Same read-out and setting: next, `O=C(Nc1ccc(Cl)cc1C(=O)N/N=C/c1ccc(F)cc1)c1cccc(CSCc2ccco2)c1` [Compound 681, N-[4-Chloro-2-(4-fluoro-benzylidene-hydrazinocarbonyl)-phenyl]-3-(furan-2-ylmethylsulfanylmethyl)-benzamide]: 25.9 µM; `CCN(CC)CCN(C)Cc1cccc(C(=O)Nc2ccc(OCCCCF)cc2C(=O)N/N=C/c2ccc(C)cc2)c1` [Compound 1058, 3-{[(2-Diethylamino-ethyl)-methyl-amino]-methyl}-N-[4-(4-fluoro-butoxy)-2-(4-methyl-benzylidene-hydrazinocarbonyl)-phenyl]-benzamide]: 1.07 µM; `O=C(Nc1ccc(Br)cc1C(=O)N/N=C/c1cccc(F)c1)c1ccc(CNCCN2CCOCC2)cc1` [Compound 713, N-[4-Bromo-2-(3-fluoro-benzylidene-hydrazinocarbonyl)-phenyl]-4-[(2-morpholin-4-yl-ethylamino)-methyl]-benzamide]: 15.5 µM.
Still for that read-out and setting: next, `Cc1ccc(/C=N/NC(=O)c2cc(Br)ccc2NC(=O)c2ccc(CN3CCC(CO)CC3)cc2)cc1` [Compound 333, N-[4-Bromo-2-(4-methyl-benzylidene-hydrazinocarbonyl)-phenyl]-4-(4-hydroxymethyl-piperidin-1-ylmethyl)-benzamide]: 17.2 µM; `Cc1ccc(/C=N/NC(=O)c2cc(N3CCOCC3)ccc2NC(=O)c2cccc(CSCCO)c2)cc1C` [Compound 1064, N-[2-(3,4-Dimethyl-benzylidene-hydrazinocarbonyl)-4-morpholin-4-yl-phenyl]-3-(2-hydroxy-ethylsulfanylmethyl)-benzamide]: < 1 µM; `Cc1ccc(/C=N/NC(=O)c2cc(Br)ccc2NC(=O)c2ccc(CN3CCC(CCO)CC3)cc2)cc1C` [Compound 340, N-[4-Bromo-2-(3,4-dimethyl-benzylidene-hydrazinocarbonyl)-phenyl]-4-[4-(2-hydroxy-ethyl)-piperidin-1-ylmethyl]-benzamide]: 8.41 µM.
Consider `O=C(Nc1cc2ccccc2cc1C(=O)N/N=C/c1cccc(F)c1)c1cccc(CN2CCN(CCO)CC2)c1` [Compound 969, N-[3-(3-Fluoro-benzylidene-hydrazinocarbonyl)-naphthalen-2-yl]-3-[4-(2-hydroxy-ethyl)-piperazin-1-ylmethyl]-benzamide], for which the IC50 is < 3 µM.
The same measure, in the same setting: the same measure for `Cc1cccc(/C=N/NC(=O)c2cc(Br)ccc2NC(=O)c2ccc(CSCCO)cc2)c1` [Compound 263, N-[4-Bromo-2-(3-methyl-benzylidene-hydrazinocarbonyl)-phenyl]-4-(2-hydroxy-ethylsulfanylmethyl)-benzamide]: < 1 µM; for `COc1ccc(C(=O)Nc2ccc(C)cc2C(=O)N/N=C/c2ccc(C)cc2)cc1OC` [Compound 149, 3,4-Dimethoxy-N-[4-methyl-2-(4-methyl-benzylidene-hydrazinocarbonyl)-phenyl]-benzamide]: 5.51 µM.
Same read-out and setting: the same measure for `O=C(Nc1ccc(Br)cc1C(=O)N/N=C/c1ccc(Cl)c(C(F)(F)F)c1)c1ccc(CNCCCN(CCO)CCO)cc1` [Compound 302, 4-({3-[Bis-(2-hydroxy-ethyl)-amino]-propylamino}-methyl)-N-[4-bromo-2-(4-chloro-3-trifluoromethyl-benzylidene-hydrazinocarbonyl)-phenyl]-benzamide]: 1.12 µM.
`O=C(Nc1ccccc1C(=O)N/N=C/c1cccc(F)c1)c1cccc(F)c1` [Compound 81, 3-Fluoro-N-[2-(3-fluoro-benzylidene-hydrazinocarbonyl)-phenyl]-benzamide]: the IC50 is 5.65 µM.
As for `CCc1ccc(C(=O)Nc2ccc(Br)cc2C(=O)N/N=C/c2ccc(C)cc2)cc1` [Compound 181, N-[4-Bromo-2-(4-methyl-benzylidene-hydrazinocarbonyl)-phenyl]-4-ethyl-benzamide], the half-maximal inhibitory concentration (IC50) worked out at 3.16 µM.
`Cc1cc(/C=N/NC(=O)c2ccccc2NC(=O)c2cccnc2)oc1C` [Compound 218, N-[2-(4,5-Dimethyl-furan-2-ylmethylene-hydrazinocarbonyl)-phenyl]-nicotinamide]: the IC50 is 4.05 µM.
Same read-out and setting: the same measure for `Cc1ccc(/C=N/NC(=O)c2cc(Cl)ccc2NC(=O)c2cccc(C[S+]([O-])Cc3ccco3)c2)cc1C` (centres unmarked) [Compound 687, N-[4-Chloro-2-(3,4-dimethyl-benzylidene-hydrazinocarbonyl)-phenyl]-3-(furan-2-ylmethanesulfinylmethyl)-benzamide]: < 3 µM.

The same assay, now with this note: phosphate uptake, oocytes expressing rat NaPi-2b; 300 μM, determined from inhibition curve.
A word on the inhibition: it is the relative decrease from the control value, in per cent. For the compound `COc1ccc(/C=N/NC(=O)c2cc(Br)sc2NC(=O)c2cccc(CN(C)C)c2)cc1` [Compound 930, N-[5-Bromo-3-(4-methoxy-benzylidene-hydrazinocarbonyl)-thiophen-2-yl]-3-dimethylaminomethyl-benzamide], at 300 µM the inhibition was 40.2%.
Same read-out and setting: next, `CC(O)CN(Cc1cccc(C(=O)Nc2sccc2C(=O)N/N=C/c2ccc(Cl)c(C(F)(F)F)c2)c1)CC(C)O` (centres unmarked) [Compound 779, 3-{[Bis-(2-hydroxy-propyl)-amino]-methyl}-N-[3-(4-chloro-3-trifluoromethyl-benzylidene-hydrazinocarbonyl)-thiophen-2-yl]-benzamide]: 51.6%; `O=C(Nc1ccc(Cl)cc1C(=O)N/N=C/c1ccc(Cl)c(C(F)(F)F)c1)c1cccc(CSCc2ccco2)c1` [Compound 700, N-[4-Chloro-2-(4-chloro-3-trifluoromethyl-benzylidene-hydrazinocarbonyl)-phenyl]-3-(furan-2-ylmethylsulfanylmethyl)-benzamide]: 40.3%; `CCOCCN(CCOCC)Cc1ccc(C(=O)Nc2ccc(Br)cc2C(=O)N/N=C/c2ccc(F)cc2)cc1` [Compound 736, 4-{[Bis-(2-ethoxy-ethyl)-amino]-methyl}-N-[4-bromo-2-(4-fluoro-benzylidene-hydrazinocarbonyl)-phenyl]-benzamide]: 61.5%.
The same measure, in the same setting: the same measure for `Cc1ccc(/C=N/NC(=O)c2cc(Br)ccc2NC(=O)c2ccc(CN3CCC(CCO)CC3)cc2)cc1` [Compound 741, N-[4-Bromo-2-(4-methyl-benzylidene-hydrazinocarbonyl)-phenyl]-4-[4-(2-hydroxy-ethyl)-piperidin-1-ylmethyl]-benzamide]: 50.9%.
